The results in this text go back to ChEMBL document CHEMBL3046008, “Phenolics and their antifungal role in grapevine wood decay: focus on the Botryosphaeriaceae family” (J Agric Food Chem, 2012).

Active and inactive are the calls of the source. The rule behind the calls is not given here.

As usually defined, the IC50 is the concentration needed to halve the response being measured.

One experiment deals with Phaeoacremonium minimum. The experiment can be described thus: Antifungal activity against Togninia minima SO21 assessed as susceptibility at 500 uM measured after 1 to 10 days. Type of experiment: functional, organism-based.
In experiment [1] the test system is Eutypa lata. As to the kind of experiment: Antifungal activity against Eutypa lata BX1-10 assessed as growth inhibition at 500 uM measured after 1 to 10 days relative to control. The format is functional.
Experiment [2] relates to Neofusicoccum parvum. As to the kind of experiment: Antifungal activity against Neofusicoccum parvum assessed as growth inhibition at 500 uM measured after 1 to 10 days relative to control. The format is functional.
Experiment [3] has as its system Diplodia seriata. The experiment can be described thus: Antifungal activity against Diplodia seriata assessed as growth inhibition at 500 uM measured after 1 to 10 days relative to control. Type of experiment: functional.
Experiment [4] relates to Phaeomoniella chlamydospora. As to the kind of experiment: Antifungal activity against Phaeomoniella chlamydospora assessed as growth inhibition at 500 uM measured after 1 to 10 days relative to control. The format is functional.
For experiment [5], the system named is Diplodia seriata. The experiment can be described thus: Antifungal activity against Diplodia seriata assessed as mycelium seemed to be halted measured after 2 days environmental scanning electron microscopy. Type of experiment: functional, organism-based.
For experiment [6], the system named is Diplodia seriata. The experiment can be described thus: Antifungal activity against Diplodia seriata assessed as mycelium denser around the initial plug and colonizing measured after 2 days by macroscopic analysis. Type of experiment: functional, organism-based.
In experiment [7] the test system is Eutypa lata. The experiment can be described thus: Antifungal activity against Eutypa lata BX1-10 assessed as growth inhibition measured after 1 to 10 days. The format is functional, organism-based.
The test system of experiment [8] is Neofusicoccum parvum. As to the kind of experiment: Antifungal activity against Neofusicoccum parvum assessed as growth inhibition measured after 1 to 10 days. Type of experiment: functional, organism-based.
In experiment [9] the test system is Diplodia seriata. As to the kind of experiment: Antifungal activity against Diplodia seriata assessed as growth inhibition measured after 1 to 10 days. The format is functional, organism-based.
The subject of experiment [10] is Eutypa lata. As to the kind of experiment: Induction of Eutypa lata BX1-10 growth at 500 uM. The format is functional, organism-based.

In the case of `COc1cc(C(=O)O)cc(OC)c1O`, the result in the experiment with Phaeoacremonium minimum was inactive.

Take `O=C(O)c1cc(O)c(O)c(O)c1`: the result in the experiment on Phaeoacremonium minimum was inactive.

As to `Oc1ccc(/C=C/c2cc(O)cc(O)c2)cc1` [RESVERATROL], the “fold change (FC)” value stood at 1.7 in the experiment on Eutypa lata [1], 1.1 with Neofusicoccum parvum [2] and 1.6 with Diplodia seriata [3]. For the same compound, the result in the experiment on Phaeoacremonium minimum was inactive.

As to `O=C(/C=C/c1ccc(O)c(O)c1)O[C@@H]1C[C@](O)(C(=O)O)C[C@@H](O)[C@H]1O`, in the experiment with Phaeoacremonium minimum, the outcome was inactive.

Regarding `Oc1ccc([C@H]2Oc3cc(O)cc(/C=C/c4ccc5c(c4)[C@@H](c4cc(O)cc6c4[C@H](c4cc(O)cc(O)c4)[C@@H](c4ccc(O)cc4)O6)[C@H](c4ccc(O)cc4)O5)c3[C@@H]2c2cc(O)cc(O)c2)cc1`, the “growth inhibition (GI)” value in the experiment with Neofusicoccum parvum [2] and with Diplodia seriata [3] was “Active” in each case. For the same compound, in the experiment on Phaeoacremonium minimum, the result was inactive.

`COc1cc(C(=O)O)ccc1O`: the outcome with Phaeoacremonium minimum was inactive.

With `O=C(O)/C=C/c1ccc(O)c(O)c1`, in the experiment with Phaeoacremonium minimum, the result was inactive.

Turning to `COc1cc(/C=C/C(=O)O)ccc1O` [FERULATE], the “fold change (FC)” value in experiment [4] is recorded as 1.4; with Eutypa lata [1], 2.2; in the experiment on Neofusicoccum parvum [2] it was 1.5; in the experiment on Diplodia seriata [3] it was 1.6. Moreover, the outcome with Phaeoacremonium minimum was inactive.

In the case of `COc1cc(/C=C/c2ccc(O)cc2)cc(OC)c1` [PTEROSTILBENE], the result in the experiment with Diplodia seriata [5] and with Diplodia seriata [6] was Active. Moreover, the results for the concentration for half-maximal inhibition (IC50) in the experiment on Eutypa lata [7], with Neofusicoccum parvum [8] and in the experiment on Diplodia seriata [9] were 251 µM, 250 µM and 163 µM, respectively. Also, the “growth inhibition (GI)” value in the experiment on Neofusicoccum parvum [2] and with Diplodia seriata [3] was “Active” throughout. Besides, the outcome with Phaeoacremonium minimum was inactive.

`Oc1cc(O)c2c(c1)O[C@H](c1ccc(O)c(O)c1)[C@H](O)C2`: in the experiment on Phaeoacremonium minimum, the outcome was inactive.

As for `OC[C@H]1O[C@@H](Oc2cc(O)cc(/C=C/c3ccc(O)cc3)c2)[C@H](O)[C@@H](O)[C@@H]1O`, the “growth inhibition (GI)” value with Neofusicoccum parvum [2] and with Diplodia seriata [3] was “Active” in each case. In the experiment with Phaeoacremonium minimum, the result was inactive.

`Oc1ccc(/C=C/c2cc(O)cc3c2[C@@H](c2cc(O)cc(O)c2)[C@H](c2ccc(O)cc2)O3)cc1` [EPSILON-VINIFERIN]: the concentration for half-maximal inhibition (IC50) in the experiment on Diplodia seriata [9] was 260 µM. The “growth inhibition (GI)” value with Neofusicoccum parvum [2] and in the experiment on Diplodia seriata [3] was “Active” in each case. The outcome with Phaeoacremonium minimum was inactive.

With `Oc1cc(O)c2c(c1)O[C@H](c1ccc(O)c(O)c1)[C@@H](O)C2`, the outcome in the experiment on Phaeoacremonium minimum was inactive.

In the case of `O=c1c(O)c(-c2ccc(O)cc2)oc2cc(O)cc(O)c12`, the “growth inhibition (GI)” value in the experiment on Eutypa lata [1] is “inactive”. For the same compound, the result in the experiment with Phaeoacremonium minimum was inactive.

As to `Oc1ccc([C@H]2c3c(O)cc(O)cc3[C@H]3c4c(cc(O)cc4[C@@H]2c2cc(/C=C/c4cc(O)cc5c4[C@H](c4cc(O)cc(O)c4)[C@@H](c4ccc(O)cc4)O5)ccc2O)O[C@@H]3c2ccc(O)cc2)cc1`, the “growth inhibition (GI)” value with Neofusicoccum parvum [2] and in the experiment with Diplodia seriata [3] was “Active” each time. Further, in the experiment with Phaeoacremonium minimum, the outcome was inactive.

Regarding `Oc1cc(O)cc(/C=C/c2ccc(O)c(O)c2)c1` [PICEATANNOL], in the experiment with Diplodia seriata [9], the concentration for half-maximal inhibition (IC50) stood at 299 µM. Besides, the “growth inhibition (GI)” value in the experiment on Neofusicoccum parvum [2] and in the experiment with Diplodia seriata [3] was “Active” throughout. Besides, in the experiment on Phaeoacremonium minimum, the result was inactive.

As to `Oc1ccc([C@H]2c3c(O)cc(O)cc3[C@H]3c4c(cc(O)cc4[C@@H]2O)O[C@@H]3c2ccc(O)cc2)cc1`, the “growth inhibition (GI)” value in the experiment on Neofusicoccum parvum [2] and in the experiment on Diplodia seriata [3] was “Active” each time. The result in the experiment with Phaeoacremonium minimum was inactive.

With `COc1cc(/C=C/C(=O)O)cc(OC)c1O`, in the experiment with Phaeoacremonium minimum, the outcome was inactive.

With `O=C(O)/C=C/c1ccc(O)cc1`, the outcome with Phaeoacremonium minimum was inactive.

For `O=c1c(O)c(-c2ccc(O)c(O)c2)oc2cc(O)cc(O)c12`, the outcome in the experiment on Eutypa lata [10] was Active. In addition, in the experiment on Phaeoacremonium minimum, the result was inactive.

Regarding `O=C(O[C@@H]1Cc2c(O)cc(O)cc2O[C@@H]1c1ccc(O)c(O)c1)c1cc(O)c(O)c(O)c1`, the result with Phaeoacremonium minimum was inactive.
